Experimental data taken from ChEMBL document CHEMBL4002566, “S-substituted 3,5-dinitrophenyl 1,3,4-oxadiazole-2-thiols and tetrazole-5-thiols as highly efficient antitubercular agents” (Eur J Med Chem, 2017).

Tests used:
Format in all cases: functional
[1] = system: Mycobacterium avium; assay: Antimycobacterial activity against Mycobacterium avium CNCTC My 330/88 after 21 days by micromethod; conditions: CNCTC My 330/88, 504 h
[2] = system: Mycobacterium tuberculosis; assay: Antimycobacterial activity against Mycobacterium tuberculosis CNCTC My 331/88 after 14 days by micromethod; conditions: CNCTC My 331/88, 336 h
[3] = system: Mycobacterium avium; assay: Antimycobacterial activity against Mycobacterium avium CNCTC My 330/88 after 14 days by micromethod; conditions: CNCTC My 330/88, 336 h
[4] = system: Mycobacterium kansasii; assay: Antimycobacterial activity against Mycobacterium kansasii CNCTC My 235/80 after 14 days by micromethod; conditions: CNCTC My 235/80, 336 h
[5] = system: Mycobacterium kansasii; assay: Antimycobacterial activity against Mycobacterium kansasii 6509/96 clinical isolate after 14 days by micromethod; conditions: 6509/96, 336 h
[6] = system: Mycobacterium tuberculosis; assay: Antimycobacterial activity against Mycobacterium tuberculosis CNCTC My 331/88 after 21 days by micromethod; conditions: CNCTC My 331/88, 504 h
[7] = system: Mycobacterium kansasii; assay: Antimycobacterial activity against Mycobacterium kansasii CNCTC My 235/80 after 21 days by micromethod; conditions: CNCTC My 235/80, 504 h
[8] = system: Mycobacterium kansasii; assay: Antimycobacterial activity against Mycobacterium kansasii CNCTC My 235/80 after 7 days by micromethod; conditions: CNCTC My 235/80, 168 h
[9] = system: Mycobacterium kansasii; assay: Antimycobacterial activity against Mycobacterium kansasii 6509/96 clinical isolate after 21 days by micromethod; conditions: 6509/96, 504 h
[10] = system: Mycobacterium kansasii; assay: Antimycobacterial activity against Mycobacterium kansasii 6509/96 clinical isolate after 7 days by micromethod; conditions: 6509/96, 168 h
[11] = system: Candida albicans; assay: Antifungal activity against Candida albicans ATCC 44859 after 24 hrs by broth microdilution method; conditions: ATCC 44859, 24 h
[12] = system: Candida tropicalis; assay: Antifungal activity against Candida tropicalis 156 after 24 hrs by broth microdilution method; conditions: Candida tropicalis, 156, 24 h
[13] = system: Pichia kudriavzevii; assay: Antifungal activity against Candida krusei E28 after 24 hrs by broth microdilution method; conditions: E28, 24 h
[14] = system: Trichosporon asahii; assay: Antifungal activity against Trichosporon asahii 1188 after 24 hrs by broth microdilution method; conditions: Trichosporon asahii, 1188, 24 h
[15] = system: Aspergillus fumigatus; assay: Antifungal activity against Aspergillus fumigatus 231 after 24 hrs by broth microdilution method; conditions: Aspergillus fumigatus, 231, 24 h
[16] = system: Lichtheimia corymbifera; assay: Antifungal activity against Absidia corymbifera 272 after 24 hrs by broth microdilution method; conditions: Lichtheimia corymbifera, 272, 24 h
[17] = system: Trichophyton mentagrophytes; assay: Antifungal activity against Trichophyton mentagrophytes 445 after 72 hrs by broth microdilution method; conditions: Trichophyton mentagrophytes, 445, 72 h

Measured: MIC

O=[N+]([O-])c1cc(-c2nnc(SCc3ccc(Cl)cc3Cl)o2)cc([N+](=O)[O-])c1
0.03 µM: [2] | [5] | [6] | [8] | [9] | [10]
250 µM: [1] | [3]
0.06 µM: [4] | [7]

Nc1cc(-c2nnc(SCc3ccc([N+](=O)[O-])cc3)o2)cc([N+](=O)[O-])c1
not listed: [11] | [12] | [13] | [14] | [15] | [16] | [17]
125 µM: all other assays above

OC(Cn1cncn1)(Cn1cncn1)c1ccc(F)cc1F [FLUCONAZOLE]
105 µM: [13] | [17]
0.82 µM: [11]
> 500 µM: [15] | [16]
210 µM: [14]
1.6 µM: [12]

O=[N+]([O-])c1cc(-c2nnc(SC3CCCCC3)o2)cc([N+](=O)[O-])c1
0.03 µM: [2] | [4] | [5] | [6] | [7] | [8] | [9] | [10]
16 µM: [3]
32 µM: [1]

NNC(=O)c1ccncc1 [ISONIAZID]
8 µM: [9]
4 µM: [5] | [10]
0.5 µM: [2]
> 250 µM: [1] | [3] | [4] | [8]
1 µM: [6]

O=[N+]([O-])c1cc(-c2nnc(SCc3ccccc3)o2)cc([N+](=O)[O-])c1
4 µM: [1] | [3]
0.5 µM: [2] | [4] | [5] | [6] | [7] | [9]
0.25 µM: [8] | [10]

Nc1cc(-c2nnc(SCc3ccccc3)o2)cc([N+](=O)[O-])c1
not listed: [11] | [12] | [13] | [14] | [15] | [16] | [17]
250 µM: all other assays above

CC(=O)Nc1cc(-c2nnc(SCc3ccc(Cl)cc3)o2)cc([N+](=O)[O-])c1
250 µM: [2] | [6]
> 1000 µM: [1] | [3] | [4] | [5] | [7] | [8] | [9] | [10]

O=[N+]([O-])c1cc(-c2nnc(SCc3ccc(Cl)cc3)o2)cc(C(F)(F)F)c1
> 250 µM: [1] | [3]
1 µM: [4] | [5] | [7] | [8] | [9] | [10]
0.5 µM: [2] | [6]

CC(=O)Nc1cc(-c2nnc(SCc3ccc(Br)cc3)o2)cc([N+](=O)[O-])c1
not listed: [11] | [12] | [13] | [14] | [15] | [16] | [17]
> 500 µM: all other assays above

COc1ccc(CSc2nnc(-c3cc(N)cc([N+](=O)[O-])c3)o2)cc1
250 µM: [1] | [3] | [4] | [5] | [7] | [8] | [9] | [10]
125 µM: [2] | [6]

CCCSc1nnc(-c2cc([N+](=O)[O-])cc([N+](=O)[O-])c2)o1
0.25 µM: [2]
2 µM: [4] | [5] | [7]
4 µM: [9]
1 µM: [8] | [10]
8 µM: [1] | [3]
0.5 µM: [6]

CC(=O)Nc1cc(-c2nnc(SCc3ccccc3)o2)cc([N+](=O)[O-])c1
not listed: [11] | [12] | [13] | [14] | [15] | [16] | [17]
> 1000 µM: all other assays above
